According to EP1994923A2, “Cosmetic and dermatological compositions for dry skin” (Henkel AG & Co. KGaA, priority 2007, dated 2008):

Tested on: Aquaporine (AQ3)
Assay: Influence on aquaporin synthesis in a skin model (indirect immunohistology)
Assay type: cell-based
Conditions: skin model as in WO 03/053394 A2; 10 mg/ml test solution (extracts: 10 mg dry substance per ml); added systemically to the medium every two days; frozen after 6 days; cryosections
Protocol: An einem Hautmodell, wie in WO 03/053394 A2 beschrieben, wurde der Einfluss folgender Substanzen auf die Aquaporinsynthese überprüft: • 1.) Ergothionein (10 mg/ml Testlösung) • 2.) Wässriger Extrakt aus Laminaria digitata (mit einem hohen Anteil an Laminarin; verwendet wurde das Handelsprodukt Phycojuvenine in einer solchen Menge, dass die Testlösung eine Konzentration von 10 mg Extrakt-Trockensubstanz pro ml aufwies) • 3.) Wässriges Proteinhydrolysat von Hefeproteinen (verwendet wurde das Handelsprodukt Biodynes TRF Powder von Arch Chemicals Inc. in einer von 10 mg Extrakt-Trockensubstanz pro ml Testlösung)
Die Hautmodelle wurden nach Ankunft in frisches Medium gesetzt. Nach Vorinkubation über Nacht wurden sie alle zwei Tage mit den Testsubstanzen behandelt, indem der Wirkstoff systemisch in das Medium gegeben wurde. Die Kulturen wurden nach 6 Tagen für Cryoschnitte bei -80 °C eingefroren. Zum Zeitpunkt 0 wurden Kontrollproben eingefroren.
Zum Nachweis von Aquaporinen (AQ3) wurde die indirekte Immunhistologie angewendet. Hierbei bindet ein unkonjungierter Primärantikörper an das Antigen. Anschließend wird ein Sekundärantikörper eingesetzt, der gegen den Primärantikörper gerichtet ist.

`C[N+](C)(C)[C@@H](Cc1cnc(S)[nH]1)C(=O)[O-]` [Ergothionein, 2-Mercapto-N^αN^αN^α-trimethyl-L-histidinium-Betain] was tested, and the “Aquaporinsynthese (Induktion der Aquaporine (AQ3))” value was “stimulierten”.
